Measured values reported in US12365695B2, “Fused ring heteroaryl compounds as RIPK1 inhibitors” (BiSiChem Co., Ltd., priority 2019, dated 2025).

Tested on: HT-29 cells
Assay: Cell-based necroptosis assay for RIPK1 activity (cell viability, CCK-8)
Details: HT29 (human colon cancer), Z-VAD-FMK 20 μM, human TNFα 10 ng/ml, SM-164 100 nM, 24 h, read-out: Necroptosis inhibition (IC50)
Procedure: Human colon carcinoma cell HT-29 (KCLB 30038), BV2 mouse microglial cell (cell was a kind gift from Dr. Nak-Yun Sung, Senior researcher at Korea Prime Pharmacy CO., LTD.) and human microglial cell HMC3 (ATCC® CRL-3304™). HT-29 cell was grown in Roswell Park Memorial Institute (RPMI) 1640, BV2 cell was grown in Dulbecco's Modified Eagle's Medium (DMEM) and HMC3 cell was grown in Minimum Essential Media Eagle (MEM) supplemented with 10% fetal bovine serum and 1% mixture of penicillin and streptomycin (Gibco). Cells were maintained at 37° C. in a humidified 5% CO2 atmosphere.
To measure the activity of RIPK1 inhibitor in necroptotic cells, HT-29 cells were treated by control DMSO, human TNFα (Peprotech, Rocky Hill, USA), SM-164 (Biovision, California, USA) and a pan-caspase inhibitor Z-VAD-FMK (Invivogen, San Diego, USA). Cells were pretreated with Z-VAD-FMK 20 μM. After 30 min, human TNFα 10 ng/ml, SM-164 100 nM and RIPK1 Inhibitor (0.0001, 0.001, 0.01, 0.02, 0.05, 0.1, 1, 10 uM) were treated for 24 h. Cell viability was measured by Cell Counting Kit 8 (CCK-8) (Dong-in, Seoul, Korea).

Compound	IC50
CN1C(=O)[C@@H](NC(=O)n2cc(Cc3cccc(C#N)c3)cn2)COc2ccccc21 [Example 7, (S)-4-(3-cyanobenzyl)-N-(5-methyl-4-oxo-2,3,4,5-tetrahydrobenzo[b][1,4]oxazepin-3-yl)-1H-pyrazole-1-carboxamide]	< 10 nM
O=C1Nc2ccccc2OC[C@@H]1NC(=O)n1cc(Cc2ccccc2)cn1 [Example 1, (S)-4-benzyl-N-(4-oxo-2,3,4,5-tetrahydrobenzo[b][1,4]oxazepin-3-yl)-1H-pyrazole-1-carboxamide]	< 100 nM
CN1C(=O)[C@@H](NC(=O)n2cc(Cc3cccc(F)c3)cn2)COc2cccnc21 [Example 21, (S)-4-(3-fluorobenzyl)-N-(5-methyl-4-oxo-2,3,4,5-tetrahydropyrido[3,2-b][1,4]oxazepin-3-yl)-1H-pyrazole-1-carboxamide]	< 10 nM
CN1C(=O)[C@@H](NC(=O)n2cc(Cc3cccc(C(F)(F)F)c3)cn2)COc2ccccc21 [Example 6, (S)—N-(5-methyl-4-oxo-2,3,4,5-tetrahydrobenzo[b][1,4]oxazepin-3-yl)-4-(3-(trifluoromethyl)benzyl)-1H-pyrazole-1-carboxamide]	< 100 nM
COc1ccc2c(c1)N(C)C(=O)[C@@H](NC(=O)n1cc(Cc3cccc(F)c3)cn1)CO2 [Example 20, (S)-4-(3-fluorobenzyl)-N-(7-methoxy-5-methyl-4-oxo-2,3,4,5-tetrahydrobenzo[b][1,4]oxazepin-3-yl)-1H-pyrazole-1-carboxamide]	< 10 nM
CN1C(=O)[C@@H](NC(=O)n2cc(Cc3ccccc3)cn2)COc2ccnc(F)c21 [Example 32, (S)-4-benzyl-N-(6-fluoro-5-methyl-4-oxo-2,3,4,5-tetrahydropyrido[4,3-b][1,4]oxazepin-3-yl)-1H-pyrazole-1-carboxamide]	< 10 nM
Cc1cccc(Cc2cnn(C(=O)N[C@H]3COc4ccccc4N(C)C3=O)c2)c1 [Example 5, (S)—N-(5-methyl-4-oxo-2,3,4,5-tetrahydrobenzo[b][1,4]oxazepin-3-yl)-4-(3-methylbenzyl)-1H-pyrazole-1-carboxamide]	< 10 nM
CN1C(=O)[C@@H](NC(=O)n2cc(Cc3ccccc3)cn2)COc2cccc(F)c21 [Example 12, (S)-4-benzyl-N-(6-fluoro-5-methyl-4-oxo-2,3,4,5-tetrahydrobenzo[b][1,4]oxazepin-3-yl)-1H-pyrazole-1-carboxamide]	< 10 nM
O=C1Nc2c(F)cc(F)cc2CC[C@@H]1NC(=O)n1cc(Cc2cccc(F)c2)cn1 [Example 26, (S)—N-(7,9-difluoro-2-oxo-2,3,4,5-tetrahydro-1H-benzo[b]azepin-3-yl)-4-(3-fluorobenzyl)-1H-pyrazole-1-carboxamide]	< 10 nM
CN1C(=O)[C@@H](NC(=O)n2cc(Cc3cccc(F)c3)cn2)COc2cc(F)ncc21 [Example 35, (S)—N-(8-fluoro-5-methyl-4-oxo-2,3,4,5-tetrahydropyrido[4,3-b][1,4]oxazepin-3-yl)-4-(3-fluorobenzyl)-1H-pyrazole-1-carboxamide]	< 10 nM
CN1C(=O)C(NC(=O)n2cc(Cc3ccccc3)cn2)CCc2cc(F)cc(F)c21 (stereo not shown) [Example 27, 4-benzyl-N-(7,9-difluoro-1-methyl-2-oxo-2,3,4,5-tetrahydro-1H-benzo[b]azepin-3-yl)-1H-pyrazole-1-carboxamide]	< 10 nM
CN1C(=O)C(NC(=O)n2cc(Cc3ccccc3)cn2)CCc2nccnc21 (stereo not shown) [Example 31, 4-benzyl-N-(5-methyl-6-oxo-6,7,8,9-tetrahydro-5H-pyrazino[2,3-b]azepin-7-yl)-1H-pyrazole-1-carboxamide]	> 100 nM
O=C1Nc2nccnc2CCC1NC(=O)n1cc(Cc2ccccc2)cn1 (stereo not shown) [Example 29, 4-benzyl-N-(6-oxo-6,7,8,9-tetrahydro-5H-pyrazino[2,3-b]azepin-7-yl)-1H-pyrazole-1-carboxamide]	> 100 nM
O=C1Nc2c(F)cccc2OC[C@@H]1NC(=O)n1cc(Cc2cccc(F)c2)cn1 [Example 11, (S)—N-(6-fluoro-4-oxo-2,3,4,5-tetrahydrobenzo[b][1,4]oxazepin-3-yl)-4-(3-fluorobenzyl)-1H-pyrazole-1 carboxamide]	< 100 nM
CN1C(=O)C(NC(=O)n2cc(Cc3cccc(F)c3)cn2)CCc2cc(F)cc(F)c21 (stereo not shown) [Example 28, N-(7,9-difluoro-1-methyl-2-oxo-2,3,4,5-tetrahydro-1H-benzo[b]azepin-3-yl)-4-(3-fluorobenzyl)-1H-pyrazole-1-carboxamide]	< 10 nM
COc1ccc2c(c1)OC[C@H](NC(=O)n1cc(Cc3ccccc3)cn1)C(=O)N2C [Example 18, (S)-4-benzyl-N-(8-methoxy-5-methyl-4-oxo-2,3,4,5-tetrahydrobenzo[b][1,4]oxazepin-3-yl)-1H-pyrazole-1-carboxamide]	< 10 nM

Compound	IC50
O=C1Nc2ccccc2OC[C@@H]1NC(=O)n1cc(Cc2cccc(F)c2)cn1 [Example 2, (S)-4-(3-fluorobenzyl)-N-(4-oxo-2,3,4,5-tetrahydrobenzo[b][1,4]oxazepin-3-yl)-11H-pyrazole-1-carboxamide]	< 100 nM
CN1C(=O)[C@@H](NC(=O)n2cc(Cc3ccc(C#N)cc3)cn2)COc2ccccc21 [Example 9, (S)-4-(4-cyanobenzyl)-N-(5-methyl-4-oxo-2,3,4,5-tetrahydrobenzo[b][1,4]oxazepin-3-yl)-1H-pyrazole-1-carboxamide]	< 100 nM
Cc1cc2c(cn1)N(C)C(=O)[C@@H](NC(=O)n1cc(Cc3ccccc3)cn1)CO2 [Example 37, (S)-4-benzyl-N-(5,8-dimethyl-4-oxo-2,3,4,5-tetrahydropyrido[4,3-b][1,4]oxazepin-3-yl)-1H-pyrazole-1-carboxamide]	< 10 nM
COc1ccc2c(c1)N(C)C(=O)[C@@H](NC(=O)n1cc(Cc3ccccc3)cn1)CO2 [Example 19, (S)-4-benzyl-N-(7-methoxy-5-methyl-4-oxo-2,3,4,5-tetrahydrobenzo[b][1,4]oxazepin-3-yl)-1H-pyrazole-1-carboxamide]	< 10 nM
CN1C(=O)[C@@H](NC(=O)n2cc(Cc3ccccc3)cn2)COc2cnccc21 [Example 24, (S)-4-benzyl-N-(1-methyl-2-oxo-1,2,3,4-tetrahydropyrido[3,4-b][1,4]oxazepin-3-yl)-1H-pyrazole-1-carboxamide]	< 100 nM
CN1C(=O)[C@@H](NC(=O)n2cc(Cc3cccc(F)c3)cn2)COc2cc(F)cc(F)c21 [Example 17, (S)—N-(6,8-difluoro-5-methyl-4-oxo-2,3,4,5-tetrahydrobenzo[b][1,4]oxazepin-3-yl)-4-(3-fluorobenzyl)-1H-pyrazole-1-carboxamide]	< 10 nM
O=C1Nc2c(F)cc(F)cc2OC[C@@H]1NC(=O)n1cc(Cc2ccccc2)cn1 [Example 14, (S)-4-benzyl-N-(6,8-difluoro-4-oxo-2,3,4,5-tetrahydrobenzo[b][1,4]oxazepin-3-yl)-1H-pyrazole-1-carboxamide]	< 100 nM
O=C1Nc2c(F)cc(F)cc2OC[C@@H]1NC(=O)n1cc(Cc2cccc(F)c2)cn1 [Example 15, (S)—N-(6,8-difluoro-4-oxo-2,3,4,5-tetrahydrobenzo[b][1,4]oxazepin-3-yl)-4-(3-fluorobenzyl)-1H-pyrazole-1-carboxamide]	> 100 nM
CN1C(=O)[C@@H](NC(=O)n2cc(Cc3cccc(F)c3)cn2)COc2ccccc21 [Example 3, (S)-4-(3-fluorobenzyl)-N-(5-methyl-4-oxo-2,3,4,5-tetrahydrobenzo[b][1,4]oxazepin-3-yl)-4-1H-pyrazole-1-carboxamide]	< 10 nM
CN1C(=O)[C@@H](NC(=O)n2cc(Cc3cccc(F)c3)cn2)COc2cccc(F)c21 [Example 13, (S)—N-(6-fluoro-5-methyl-4-oxo-2,3,4,5-tetrahydrobenzo[b][1,4]oxazepin-3-yl)-4-(3-fluorobenzyl)-1H-pyrazole-1-carboxamide]	< 10 nM
CN1C(=O)[C@@H](NC(=O)n2cc(Cc3cccc(F)c3)cn2)COc2ccncc21 [Example 23, (S)-4-(3-fluorobenzyl)-N-(5-methyl-4-oxo-2,3,4,5-tetrahydropyrido[4,3-b][1,4]oxazepin-3-yl)-1H-pyrazole-1-carboxamide]	< 10 nM
O=C1Nc2c(F)cccc2OC[C@@H]1NC(=O)n1cc(Cc2ccccc2)cn1 [Example 10, (S)-4-benzyl-N-(6-fluoro-4-oxo-2,3,4,5-tetrahydrobenzo[b][1,4]oxazepin-3-yl)-1H-pyrazole-1-carboxamide]	< 100 nM
CN1C(=O)[C@@H](NC(=O)n2cc(Cc3ccccc3)cn2)COc2cc(Cl)ncc21 [Example 36, (S)-4-benzyl-N-(8-chloro-5-methyl-4-oxo-2,3,4,5-tetrahydropyrido[4,3-b][1,4]oxazepin-3-yl)-1H-pyrazole-1-carboxamide]	< 10 nM
O=C1Nc2c(F)cc(F)cc2CCC1NC(=O)n1cc(Cc2ccccc2)cn1 (stereo not shown) [Example 25, 4-benzyl-N-(7,9-difluoro-2-oxo-2,3,4,5-tetrahydro-1H-benzo[b]azepin-3-yl)-1H-pyrazole-1-carboxamide]	< 100 nM
CN1C(=O)[C@@H](NC(=O)n2cc(Cc3ccccc3)cn2)COc2ccncc21 [Example 22, (S)-4-benzyl-N-(5-methyl-4-oxo-2,3,4,5-tetrahydropyrido[4,3-b][1,4]oxazepin-3-yl)-1H-pyrazole-1-carboxamide]	< 10 nM
